Source: patent publication US7713966B2, “Heterobicyclic metalloprotease inhibitors” (Alantos Pharmaceuticals Holding, Inc., priority 2006, dated 2010)

Key:
Type in all cases: biochemical
[1] = molecular target: T1, catalytic domain of MMP-13 enzyme (Homo sapiens, UniProt P45452); experiment: Assay for determining MMP-13 inhibition (fluorescent substrate); details: read-out: MMP-13 Activity (IC50 MMP-13), Group
T1 construct: catalytic domain of MMP-13 enzyme (produced by Alantos or commercially available from Invitek (Berlin), Cat. # 30100812); purchased Invitek (Berlin) 30100812
Description: The typical assay for MMP-13 activity is carried out in assay buffer comprised of 50 mM Tris, pH 7.5, 150 mM NaCl, 5 mM CaCl2 and 0.05% Brij-35. Different concentrations of tested compounds are prepared in assay buffer in 50 μL aliquots. 10 μL of a 50 nM stock solution of catalytic domain of MMP-13 enzyme (produced by Alantos or commercially available from Invitek (Berlin), Cat. # 30100812) is added to the compound solution. The mixture of enzyme and compound in assay buffer is thoroughly mixed and incubated for 10 min at room temperature. Upon the completion of incubation, the assay is started by addition of 40 μl of a 12.5 μM stock solution of MMP-13 fluorescent substrate (Calbiochem, Cat. No. 444235). The time-dependent increase in fluorescence is measured at the 320 nm excitation and 390 nm emission by automatic plate multireader. The IC50 values are calculated from the initial reaction rates.

[2] = molecular target: T2, catalytic domain of MMP-3 enzyme (Homo sapiens, UniProt P08254); experiment: Assay for determining MMP-3 inhibition (NFF-3 fluorescent substrate); details: read-out: MMP-3 Activity (IC50 MMP-3), Group
T2 construct: catalytic domain of MMP-3 enzyme (Biomol, Cat. No. SE-109); purchased Biomol SE-109
Description: The typical assay for MMP-3 activity is carried out in assay buffer comprised of 50 mM MES, pH 6.0, 10 mM CaCl2 and 0.05% Brij-35. Different concentrations of tested compounds are prepared in assay buffer in 50 μL aliquots. 10 μL of a 100 nM stock solution of the catalytic domain of MMP-3 enzyme (Biomol, Cat. No. SE-109) is added to the compound solution. The mixture of enzyme and compound in assay buffer is thoroughly mixed and incubated for 10 min at room temperature. Upon the completion of incubation, the assay is started by addition of 40 μL of a 12.5 μM stock solution of NFF-3 fluorescent substrate (Calbiochem, Cat. No. 480455). The time-dependent increase in fluorescence is measured at the 330 nm excitation and 390 nm emission by an automatic plate multireader. The IC50 values are calculated from the initial reaction rates.

activated MMP-8 enzyme = molecular target: T3, activated MMP-8 enzyme (Homo sapiens, UniProt P22894); experiment: Assay for determining MMP-8 inhibition (OmniMMP fluorescent substrate); details: read-out: MMP-8 Activity (IC50 MMP-8), Group
T3 construct: purchased Calbiochem 444229
Description: The typical assay for MMP-8 activity is carried out in assay buffer comprised of 50 mM Tris, pH 7.5, 150 mM NaCl, 5 mM CaCl2 and 0.05% Brij-35. Different concentrations of tested compounds are prepared in assay buffer in 50 μL aliquots. 10 μL of a 50 nM stock solution of activated MMP-8 enzyme (Calbiochem, Cat. No. 444229) is added to the compound solution. The mixture of enzyme and compound in assay buffer is thoroughly mixed and incubated for 10 min at 37° C. Upon the completion of incubation, the assay is started by addition of 40 μL of a 10 μM stock solution of OmniMMP fluorescent substrate (Biomol, Cat. No. P-126). The time-dependent increase in fluorescence is measured at the 320 nm excitation and 390 nm emission by an automatic plate multireader at 37° C. The IC50 values are calculated from the initial reaction rates.

T2 sequence (P08254 100-272 limits assumed): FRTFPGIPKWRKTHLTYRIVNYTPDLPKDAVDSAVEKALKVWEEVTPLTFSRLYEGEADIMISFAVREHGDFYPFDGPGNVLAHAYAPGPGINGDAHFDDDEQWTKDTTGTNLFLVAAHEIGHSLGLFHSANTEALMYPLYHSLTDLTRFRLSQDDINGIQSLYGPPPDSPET
T3 sequence (P22894 101-467): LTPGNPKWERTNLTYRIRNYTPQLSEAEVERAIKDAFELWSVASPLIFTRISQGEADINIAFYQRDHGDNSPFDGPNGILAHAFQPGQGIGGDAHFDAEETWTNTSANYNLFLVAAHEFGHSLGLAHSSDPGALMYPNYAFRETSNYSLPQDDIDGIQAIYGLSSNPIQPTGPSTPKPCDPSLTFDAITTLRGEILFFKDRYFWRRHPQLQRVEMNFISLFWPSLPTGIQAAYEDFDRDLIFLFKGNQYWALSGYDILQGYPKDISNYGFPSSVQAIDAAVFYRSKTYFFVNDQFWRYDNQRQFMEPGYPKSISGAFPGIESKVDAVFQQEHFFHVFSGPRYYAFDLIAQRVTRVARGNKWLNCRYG

Row | Compound | IC50 [1] [µM] | IC50 [2] [µM] | IC50 (activated MMP-8 enzyme) [µM]
1 | C[C@@H](NC(=O)c1ccccc1)c1ccc2nc(C(=O)NCc3ccc4c(c3)NC(=O)CO4)[nH]c(=O)c2c1 [29/1] | < 0.1 | 0.25 to 20 | < 0.25
2 | CC(=O)NCc1ccc2nc(C(=O)NCc3ccc4c(c3)NC(=O)CO4)[nH]c(=O)c2c1 [2/91] |  | < 0.25 | 
3 | Cc1sc2nc(C(=O)NCc3ccc4c(c3)NC(=NC#N)CO4)[nH]c(=O)c2c1C [2/221] | < 0.1 | 0.25 to 20 | < 0.25
4 | Cc1sc2nc(C(=O)NCc3ccc4c(c3)NC(=O)CO4)[nH]c(=O)c2c1-c1ccccc1 [2/105] |  | 0.25 to 20 | 0.25 to 20
5 | O=C1COc2ccc(CNC(=O)c3nc4ccc(Cl)cc4c(=O)[nH]3)cc2N1 [2/26] |  | < 0.25 | < 0.25
6 | N#CCc1csc2nc(C(=O)NCc3ccc4c(c3)NC(=O)CO4)[nH]c(=O)c12 [Example 19] | < 0.1 | < 0.25 | < 0.25
7 | O=C1COc2ccc(CNC(=O)c3nc4scc(-c5cnccn5)c4c(=O)[nH]3)cc2N1 [2/185] | < 0.1 | < 0.25 | 0.25 to 20
8 | Cc1sc2nc(C(=O)NCc3ccc4c(c3)NC(=O)CO4)[nH]c(=O)c2c1C [2/46] | < 0.1 | 0.25 to 20 | < 0.25
9 | Cc1c(Br)sc2nc(C(=O)NCc3ccc4c(c3)NC(=O)CO4)[nH]c(=O)c12 [2/11] | < 0.1 | 0.25 to 20 | < 0.25
10 | Nc1c(N2CCc3ccc(CNC(=O)c4nc5scc(-c6ccco6)c5c(=O)[nH]4)cc3C2)c(=O)c1=O [2/98] | < 0.1 | < 0.25 | 0.25 to 20
11 | Cc1csc2nc(C(=O)NCc3ccc4c(c3)CN(c3c(N)c(=O)c3=O)CC4)[nH]c(=O)c12 [2/10] | < 0.1 | < 0.25 | < 0.25
12 | O=C1COc2ccc(CNC(=O)c3nc4c(c(=O)[nH]3)CCCC4)cc2N1 [2/55] | < 0.1 | 0.25 to 20 | < 0.25
13 | O=C1COc2ccc(CNC(=O)c3nc4ccc(CNC(=O)c5ccccc5)cc4c(=O)[nH]3)cc2N1 [2/93] | < 0.1 | 0.25 to 20 | < 0.25
14 | Cc1sc2nc(C(=O)NCc3ccc4c(c3)NC(=O)CO4)[nH]c(=O)c2c1C(C)c1ccccc1 (centres unmarked) [2/373] | < 0.1 | 0.25 to 20 | < 0.25
15 | COC(=O)c1cccc2nc(C(=O)NCc3ccc4c(c3)NC(=O)CO4)[nH]c(=O)c12 [Example 36] | < 0.1 | 0.25 to 20 | 0.25 to 20
16 | CN(C)C(=O)Cc1csc2nc(C(=O)NCc3ccc4c(c3)NC(=O)CO4)[nH]c(=O)c12 [2/160] | < 0.1 | 0.25 to 20 | < 0.25
17 | O=C1COc2ccc(CNC(=O)c3nc4cc(Br)ccc4c(=O)[nH]3)cc2N1 [2/39] | < 0.1 | 0.25 to 20 | < 0.25
18 | CNC(=O)C(C)c1csc2nc(C(=O)NCc3ccc4c(c3)NC(=O)CO4)[nH]c(=O)c12 (centres unmarked) [2/183] |  | 0.25 to 20 | < 0.25
19 | Nc1c(N2CCc3ccc(CNC(=O)c4nc5scc(-c6ccccc6)c5c(=O)[nH]4)cc3C2)c(=O)c1=O [2/110] | < 0.1 | 0.25 to 20 | 0.25 to 20
20 | COc1cccc2nc(C(=O)NCc3ccc4c(c3)NC(=O)CO4)[nH]c(=O)c12 [Example 35] | < 0.1 | < 0.25 | < 0.25

Row | Compound | IC50 [1] [µM] | IC50 [2] [µM] | IC50 (activated MMP-8 enzyme) [µM]
21 | Cc1c(CC(=O)O)sc2nc(C(=O)NCc3ccc4c(c3)NC(=O)CO4)[nH]c(=O)c12 [4/12] | < 0.1 | 0.25 to 20 | 
22 | Nc1c(N2CCc3ccc(CNC(=O)c4nc5scc(-c6cccs6)c5c(=O)[nH]4)cc3C2)c(=O)c1=O [2/51] | < 0.1 | < 0.25 | 0.25 to 20
23 | O=C1COc2ccc(CNC(=O)c3nc4scc(C(F)(F)F)c4c(=O)[nH]3)cc2N1 [2/86] | < 0.1 | < 0.25 | 0.25 to 20
24 | O=C1COc2ccc(CNC(=O)c3nc4ccc(Br)cc4c(=O)[nH]3)cc2N1 [Example 2/21] | < 0.1 | < 0.25 | < 0.25
25 | Cc1nsc2nc(C(=O)NCc3ccc4c(c3)CN(c3c(N)c(=O)c3=O)CC4)[nH]c(=O)c12 [2/134] | 0.1 to 20 | < 0.25 | 0.25 to 20
26 | O=C1COc2ccc(CNC(=O)c3nc4[nH]ncc4c(=O)[nH]3)cc2N1 [39/13] | 0.1 to 20 | 0.25 to 20 | 
27 | O=C1COc2ccc(CNC(=O)c3nc4scc(-c5nccs5)c4c(=O)[nH]3)cc2N1 [2/265] | < 0.1 | < 0.25 | 0.25 to 20
28 | O=C1COc2ccc(CNC(=O)c3nc4scc(-c5cccs5)c4c(=O)[nH]3)cc2N1 [2/49] |  | < 0.25 | 0.25 to 20
29 | O=C(Cc1csc2nc(C(=O)NCc3ccc4c(c3)NC(=O)CO4)[nH]c(=O)c12)NCS(=O)(=O)O [2/271] | < 0.1 | 0.25 to 20 | 
30 | O=C1COc2ccc(CNC(=O)c3nc4cccc(NCc5ccccc5)c4c(=O)[nH]3)cc2N1 [36/3] |  | 0.25 to 20 | 
31 | C=Cc1ccc2nc(C(=O)NCc3ccc4c(c3)NC(=O)CO4)[nH]c(=O)c2c1 [2/69] | < 0.1 |  | < 0.25
32 | CCOC(=O)c1c(C)sc2nc(C(=O)NCc3ccc4c(c3)NC(=O)CO4)[nH]c(=O)c12 [2/22] | < 0.1 |  | 0.25 to 20
33 | Nc1c(N2CCc3ccc(CNC(=O)c4nc5scc(-c6cnccn6)c5c(=O)[nH]4)cc3C2)c(=O)c1=O [2/186] | < 0.1 | < 0.25 | 
34 | O=C1COc2ccc(CNC(=O)c3nc4cc([N+](=O)[O-])ccc4c(=O)[nH]3)cc2N1 [39/22] | < 0.1 |  | < 0.25
35 | O=C1COc2ccc(CNC(=O)c3nc4scc(-c5cccnc5)c4c(=O)[nH]3)cc2N1 [2/115] | < 0.1 |  | 0.25 to 20
36 | CC(=NO)c1sc2nc(C(=O)NCc3ccc4c(c3)NC(=O)CO4)[nH]c(=O)c2c1C [Example 16] | < 0.1 |  | < 0.25
37 | O=C(Cc1csc2nc(C(=O)NCc3ccc4c(c3)NC(=O)CO4)[nH]c(=O)c12)NCc1ccc2c(c1)NC(=O)CO2 [2/149] | < 0.1 |  | < 0.25
38 | Cc1c(CO)sc2nc(C(=O)NCc3ccc4c(c3)NCCO4)[nH]c(=O)c12 [Example 20c] | < 0.1 |  | < 0.25
39 | COc1ccc2nc(C(=O)NCc3ccc4c(c3)NC(=O)CO4)[nH]c(=O)c2c1 [2/71] |  | < 0.25 | 
40 | C#Cc1ccc2nc(C(=O)NCc3ccc4c(c3)NC(=O)CO4)[nH]c(=O)c2c1 [Example 8] | < 0.1 |  | < 0.25
